Measured values as given in US20030032674A1, “Use of unsaturated fatty acids to treat severe inflammatory diseases” (priority 2001, published 2003).

Test system: constitutively active human TLR4 (CD4-TLR4)
Experiment: NFκB reporter in 293T cells transfected with constitutively active TLR4
Format: cell-based
Description: Plasmids and DNA Constructs—All plasmids and constructs were obtained or made as reported in either S. H. Rhee and D. Hwang, “Murine TOLL-like receptor 4 confers lipopolysaccaride responsiveness as determined by activation of NFκB and expression of the inducible cyclooxygenase,” Journal of Biological Chemistry, vol. 275, pp. 34035-34040 (2000); and J. Y. Lee et al., “Saturated fatty acids, but not unsaturated fatty acids, induce the expression of cyclooxygenase-2 mediated through TOLL-like receptor 4,” Journal of Biological Chemistry, vol. 276, pp. 16683-16689 (2001). Briefly, the luciferase reporter plasmids (pGL2) containing the promoter region of the murine COX-2 gene (−3201/+93 or −1017/+93) were provided by David Dewitt (Michigan State University, East Lansing, Mich.). To prepare the wild-type COX-2 promoter fragment, polymerase chain reaction (PCR) was performed with the primers named Kpn-COX2-For and Hind-COX2-Rev using the murine COX-2 (−1017/+93) luciferase reporter plasmid as a template. To prepare the mutant COX-2 promoter fragment containing mutated NFκB site, Kpn-COX2-Fmut and Hind-COX2-Rev were used as primers. Each PCR fragment was inserted into the KpnI and HindIII sites of pGL2 to generate the wild-type or mutant COX-2 (−410/+86) luciferase reporter constructs, respectively. Sequences for wild-type NFκB site and the primers were used as reported elsewhere. […]

## CCCCCCCCCCCC(=O)O [lauric acid]
  effect on CD4-TLR4-induced NFκB activation: potentiated
